Reference: patent publication US20100216779A1 (GLAXOSMITHKLINE LLC, priority 2007, published 2010)

Experiments:
Assay type in all cases: cell-based
[1] = biological target: T1, IR (NIH-3T3 cells over expressing human IGF-1R or IR) (Homo sapiens, UniProt P06213); assay: IR cellular autophosphorylation (DELFIA); conditions: NIH-3T3 cells over expressing IR, insulin stimulated
T1 construct: expressed in transfected cells; host or cells: NIH-3T3 (mouse fibroblasts)
Protocol: (§1) D. IGF-1R and IR Cellular Autophosphorylation (DELFIA)
(§2) NIH-3T3 cells over expressing human IGF-1R or IR were plated in 96-well plates (10,000 cells/well) in culture media containing 10% fetal bovine serum and incubated at 37° C. in a 5% CO2 incubator. Twenty four hours post-plating, cells were treated with different concentrations of test compounds ranging from 30 uM to 1.5 nM. Two hours after compound addition, cells were stimulated with either human IGF-1 (30 ng/mL) or insulin (3 ug/mL) for 15 minutes. Cell lysates are analyzed for phosphorylated receptors using dissociation enhanced lanthanide fluor-immuno assay (DELFIA) with anti-IGF-1R (MAB391, R&D Systems, Minneapolis, Minn.) or anti-IR[…](sc-711, Santa Cruz Biotechnology, Santa Cruz, Calif.) capture antibody and europium-labeled anti-pTyr antibody (Eu-N1 PT66, Perkin Elmer, Waltham, Mass.) for detection. The fluorescence signal for cells treated with compounds was expressed as percent relative to 100% stimulation (IGF-1 or insulin stimulated signal). […]

[2] = biological target: T2, human IGF-1R (NIH-3T3 cells over expressing human IGF-1R) (Homo sapiens, UniProt P08069); assay: IGF-1R cellular autophosphorylation (DELFIA); conditions: IGF-1 stimulated
T2 construct: expressed in transfected cells; host or cells: NIH-3T3 (mouse fibroblasts)
Protocol: as §1, §2

[3] = tested on: COLO205 (colon); assay: Inhibition of cell proliferation, CellTiter-Glo, COLO205; conditions: Homo sapiens, COLO 205, 72 h
Protocol: C. Inhibition of Cell Proliferation
Cell proliferation was measured by either CellTiter-Glo (measures cellular ATP level as a surrogate for total cell number) or by InCell analyzer (counts number of nuclei as a measure of cell number). For CellTiter-Glo assay, exponentially growing cell lines of different tumor origins, cultured in appropriate media containing 10% fetal bovine serum at 37° C. in a 5% CO2 incubator, were plated at low density (less than 2000 cells/well) in 96-well plates. […] Several wells were left untreated as a control. Seventy two hours post-treatment, cell numbers were determined using 50-100 ul per well of CellTiter-Glo (Promega #G7573). Plates were incubated at 37° C. for 30 minutes and the chemiluminescent signal was read on the Victor V or Envison 2100 reader. […]

T2 sequence (P08069 31-1367): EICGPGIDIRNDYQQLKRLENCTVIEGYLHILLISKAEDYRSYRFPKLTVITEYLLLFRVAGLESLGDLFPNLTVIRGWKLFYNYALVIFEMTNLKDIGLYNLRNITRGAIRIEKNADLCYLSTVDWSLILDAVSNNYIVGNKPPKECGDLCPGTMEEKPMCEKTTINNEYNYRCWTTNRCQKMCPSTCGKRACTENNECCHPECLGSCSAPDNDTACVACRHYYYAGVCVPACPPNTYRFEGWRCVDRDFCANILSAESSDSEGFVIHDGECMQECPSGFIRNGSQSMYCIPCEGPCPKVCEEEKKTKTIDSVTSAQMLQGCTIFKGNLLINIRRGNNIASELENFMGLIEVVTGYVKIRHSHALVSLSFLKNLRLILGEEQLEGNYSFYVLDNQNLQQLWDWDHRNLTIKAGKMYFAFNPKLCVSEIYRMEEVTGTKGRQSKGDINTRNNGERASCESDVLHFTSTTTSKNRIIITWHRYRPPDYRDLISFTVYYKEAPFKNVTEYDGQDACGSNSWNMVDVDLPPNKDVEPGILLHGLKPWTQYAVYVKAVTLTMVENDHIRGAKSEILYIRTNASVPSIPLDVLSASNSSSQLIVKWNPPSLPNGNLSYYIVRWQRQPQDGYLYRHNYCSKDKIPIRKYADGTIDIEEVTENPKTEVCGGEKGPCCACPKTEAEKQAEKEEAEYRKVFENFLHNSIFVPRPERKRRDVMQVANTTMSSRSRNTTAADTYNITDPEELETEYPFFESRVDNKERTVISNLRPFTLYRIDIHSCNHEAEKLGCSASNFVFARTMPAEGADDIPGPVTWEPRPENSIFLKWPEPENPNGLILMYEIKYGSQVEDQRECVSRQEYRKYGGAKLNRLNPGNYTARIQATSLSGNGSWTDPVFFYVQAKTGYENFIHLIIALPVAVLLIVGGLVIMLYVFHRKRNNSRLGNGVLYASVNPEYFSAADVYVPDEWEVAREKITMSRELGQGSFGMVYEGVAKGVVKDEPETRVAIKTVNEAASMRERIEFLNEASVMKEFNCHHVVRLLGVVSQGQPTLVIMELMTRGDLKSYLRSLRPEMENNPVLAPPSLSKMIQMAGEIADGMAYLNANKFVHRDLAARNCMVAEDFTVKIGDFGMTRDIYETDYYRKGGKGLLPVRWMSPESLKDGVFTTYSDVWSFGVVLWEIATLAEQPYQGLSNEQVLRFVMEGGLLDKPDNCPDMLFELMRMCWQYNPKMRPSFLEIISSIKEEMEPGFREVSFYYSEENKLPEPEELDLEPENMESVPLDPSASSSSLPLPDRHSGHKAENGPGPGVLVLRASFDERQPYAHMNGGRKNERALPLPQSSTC
T1 sequence (P06213 28-1382): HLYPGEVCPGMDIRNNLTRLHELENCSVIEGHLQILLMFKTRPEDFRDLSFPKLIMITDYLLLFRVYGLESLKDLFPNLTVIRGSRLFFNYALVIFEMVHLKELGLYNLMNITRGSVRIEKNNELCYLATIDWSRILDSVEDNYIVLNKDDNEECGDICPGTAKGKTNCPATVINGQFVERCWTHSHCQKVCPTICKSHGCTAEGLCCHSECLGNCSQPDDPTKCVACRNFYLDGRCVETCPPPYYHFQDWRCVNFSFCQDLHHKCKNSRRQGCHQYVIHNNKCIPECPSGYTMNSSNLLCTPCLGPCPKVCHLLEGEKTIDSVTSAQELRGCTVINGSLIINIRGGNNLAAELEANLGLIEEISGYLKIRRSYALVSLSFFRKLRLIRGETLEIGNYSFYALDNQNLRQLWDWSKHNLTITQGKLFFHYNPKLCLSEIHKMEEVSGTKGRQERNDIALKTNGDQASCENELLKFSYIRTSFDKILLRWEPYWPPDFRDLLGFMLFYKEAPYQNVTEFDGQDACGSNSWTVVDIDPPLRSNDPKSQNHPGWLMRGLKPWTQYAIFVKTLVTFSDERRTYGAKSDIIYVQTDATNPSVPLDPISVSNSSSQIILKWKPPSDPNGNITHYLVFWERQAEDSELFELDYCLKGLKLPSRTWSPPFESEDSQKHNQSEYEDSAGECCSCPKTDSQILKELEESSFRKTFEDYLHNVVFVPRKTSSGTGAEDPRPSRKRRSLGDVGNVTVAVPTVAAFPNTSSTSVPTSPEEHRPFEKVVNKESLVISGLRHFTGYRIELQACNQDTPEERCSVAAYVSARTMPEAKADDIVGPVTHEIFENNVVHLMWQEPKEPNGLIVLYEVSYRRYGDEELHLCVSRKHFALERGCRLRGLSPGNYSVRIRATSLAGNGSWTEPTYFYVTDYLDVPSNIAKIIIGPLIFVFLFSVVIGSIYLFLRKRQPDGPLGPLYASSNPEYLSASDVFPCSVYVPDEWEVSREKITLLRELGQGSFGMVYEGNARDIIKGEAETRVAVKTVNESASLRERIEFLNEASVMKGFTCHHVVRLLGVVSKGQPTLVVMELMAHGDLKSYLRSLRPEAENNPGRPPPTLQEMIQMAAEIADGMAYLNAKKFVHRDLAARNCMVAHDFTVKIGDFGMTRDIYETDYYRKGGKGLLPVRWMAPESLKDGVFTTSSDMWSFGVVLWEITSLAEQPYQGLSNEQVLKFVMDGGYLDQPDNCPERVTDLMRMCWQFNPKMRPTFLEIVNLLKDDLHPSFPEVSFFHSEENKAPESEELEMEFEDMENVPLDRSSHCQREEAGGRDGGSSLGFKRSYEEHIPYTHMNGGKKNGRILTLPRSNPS

| SMILES | IC50 [1] [nM] | IC50 [2] [nM] | IC50 [3] [nM] |
| --- | --- | --- | --- |
| Cc1cc(OC2CCN(CCS(C)(=O)=O)CC2)ccc1Nc1nccc(-c2c(-c3cccc(C(=O)Nc4c(F)cccc4F)c3)nc3ccccn23)n1 [Example 8, N-(2,6-difluorophenyl)-3-[3-(2-{[2-methyl-4-({1-[2-(methylsulfonyl)ethyl]-4-piperidinyl}oxy)phenyl]amino}-4-pyrimidinyl)imidazo[1,2-a]pyridin-2-yl]benzamide] | 100 to 500 | < 100 | – |
| COc1cc(N2CCN(C3CCN(CCF)CC3)CC2)ccc1Nc1nccc(-c2c(-c3cccc(C(=O)Nc4c(F)cccc4F)c3)nc3ccccn23)n1 [Example 90, N-(2,6-difluorophenyl)-3-[3-(2-{[4-{4-[1-(2-fluoroethyl)-4-piperidinyl]-1-piperazinyl}-2-(methyloxy)phenyl]amino}-4-pyrimidinyl)imidazo[1,2-a]pyridin-2-yl]benzamide] | < 100 | < 100 | 250 to 1000 |
| COc1cc(N2CCC(N3CCC(C)CC3)CC2)ccc1Nc1nccc(-c2c(-c3cccc(C(=O)Nc4c(F)cccc4F)c3)nc3ccccn23)n1 [Example 46, N-(2,6-difluorophenyl)-3-[3-(2-{[4-(4-methyl-1,4′-bipiperidin-1′-yl)-2-(methyloxy)phenyl]amino}-4-pyrimidinyl)imidazo[1,2-a]pyridin-2-yl]benzamide] | 100 to 500 | 100 to 500 | > 1000 |
| CC(C)COc1cc(N2CCC(N3CCCCC3)CC2)ccc1Nc1nccc(-c2c(-c3cccc(C(=O)Nc4c(F)cccc4F)c3)nc3ccccn23)n1 [Example 32, 3-{3-[2-({4-(1,4′-bipiperidin-1′-yl)-2-[(2-methylpropyl)oxy]phenyl}amino)-4-pyrimidinyl]imidazo[1,2-a]pyridin-2-yl}-N-(2,6-difluorophenyl)benzamide] | > 500 | > 500 | 250 to 1000 |
| COc1cc(N2CCC(N3CCCCC3)CC2)c(F)cc1Nc1nccc(-c2c(-c3ccc(OC)c(C(=O)Nc4c(F)cccc4F)c3)nc3ccccn23)n1 [Example 107, 5-[3-(2-{[4-(1,4′-bipiperidin-1′-yl)-5-fluoro-2-(methyloxy)phenyl]amino}-4-pyrimidinyl)imidazo[1,2-a]pyridin-2-yl]-N-(2,6-difluorophenyl)-2-(methyloxy)benzamide] | < 100 | < 100 | 250 to 1000 |
| COc1cc(N2CCC(N3CCC[C@H](O)C3)CC2)ccc1Nc1nccc(-c2c(-c3cccc(C(=O)Nc4c(F)cccc4F)c3)nc3ccccn23)n1 [Example 83, N-(2,6-difluorophenyl)-3-[3-(2-{[4-[(3S)-3-hydroxy-1,4′-bipiperidin-1′-yl]-2-(methyloxy)phenyl]amino}-4-pyrimidinyl)imidazo[1,2-a]pyridin-2-yl]benzamide] | 100 to 500 | < 100 | 250 to 1000 |
| COc1cc(N2CCC(N3CCN(CCF)CC3)CC2)c(Cl)cc1Nc1nccc(-c2c(-c3cccc(C(=O)Nc4c(F)cccc4F)c3)nc3ccccn23)n1 [Example 112, 3-[3-(2-{[5-chloro-4-{4-[4-(2-fluoroethyl)-1-piperazinyl]-1-piperidinyl}-2-(methyloxy)phenyl]amino}-4-pyrimidinyl)imidazo[1,2-a]pyridin-2-yl]-N-(2,6-difluorophenyl)benzamide] | < 100 | < 100 | – |
| COc1cc(CCN2CCN(C)CC2)ccc1Nc1nccc(-c2c(-c3ccc(OC(C)C)c(C(=O)Nc4c(F)cccc4F)c3)nc3ccccn23)n1 [Example 134, N-(2,6-difluorophenyl)-2-isopropoxy-5-{3-[2-({2-methoxy-4-[2-(4-methylpiperazin-1-yl)ethyl]phenyl}amino)pyrimidin-4-yl]imidazo[1,2-a]pyridin-2-yl}benzamide] | < 100 | < 100 | 250 to 1000 |
| Cc1cc(OC2CCNCC2)ccc1Nc1nccc(-c2c(-c3cccc(C(=O)Nc4c(F)cccc4F)c3)nc3ccccn23)n1 [Example 6, N-(2,6-difluorophenyl)-3-[3-(2-{[2-methyl-4-(4-piperidinyloxy)phenyl]amino}-4-pyrimidinyl)imidazo[1,2-a]pyridin-2-yl]benzamide] | > 500 | 100 to 500 | – |
| Cc1cc(OC2CCN(C)CC2)ccc1Nc1nccc(-c2c(-c3cccc(C(=O)Nc4c(F)cccc4F)c3)nc3ccccn23)n1 [Example 7, N-(2,6-difluorophenyl)-3-{3-[2-({2-methyl-4-[(1-methyl-4-piperidinyl)oxy]phenyl}amino)-4-pyrimidinyl]imidazo[1,2-a]pyridin-2-yl}benzamide] | > 500 | < 100 | – |
| COc1cc(N2CCC(N3CC[C@H](F)C3)CC2)ccc1Nc1nccc(-c2c(-c3cccc(C(=O)Nc4c(F)cccc4F)c3)nc3ccccn23)n1 [Example 77, N-(2,6-difluorophenyl)-3-[3-(2-{[4-{4-[(3S)-3-fluoro-1-pyrrolidinyl]-1-piperidinyl}-2-(methyloxy)phenyl]amino}-4-pyrimidinyl)imidazo[1,2-a]pyridin-2-yl]benzamide] | – | < 100 | 250 to 1000 |
| COc1cc(CCN2CCCCC2)c(F)cc1Nc1nccc(-c2c(-c3cccc(C(=O)Nc4c(F)cccc4F)c3)nc3ccccn23)n1 [Example 128, N-(2,6-difluorophenyl)-3-{3-[2-({5-fluoro-2-(methyloxy)-4-[2-(1-piperidinyl)ethyl]phenyl}-amino)-4-pyrimidinyl]imidazo[1,2-a]pyridin-2-yl}benzamide] | – | 100 to 500 | 250 to 1000 |
| COc1cc(N2CCC(N3CCCC(F)(F)C3)CC2)ccc1Nc1nccc(-c2c(-c3cccc(C(=O)Nc4c(F)cccc4F)c3)nc3ccccn23)n1 [Example 75, 3-[3-(2-{[4-(3,3-difluoro-1,4′-bipiperidin-1′-yl)-2-(methyloxy)phenyl]amino]-4-pyrimidinyl)imidazo[1,2-a]pyridin-2-yl]-N-(2,6-difluorophenyl)benzamide] | – | < 100 | 250 to 1000 |
| COc1cc(-c2nnc(CN(C)C)o2)ccc1Nc1nccc(-c2c(-c3cccc(C(=O)Nc4c(F)cccc4F)c3)nc3ccccn23)n1 [Example 27, N-(2,6-difluorophenyl)-3-[3-(2-{[4-{5-[(dimethylamino)methyl]-1,3,4-oxadiazol-2-yl}-2-(methyloxy)phenyl]amino}-4-pyrimidinyl)imidazo[1,2-a]pyridin-2-yl]benzamide] | > 500 | – | > 1000 |
| Cc1c(CN2CCN(C)CC2)cccc1Nc1nccc(-c2c(-c3cccc(C(=O)Nc4c(F)cccc4F)c3)nc3ccccn23)n1 [Example 24] | – | < 100 | 250 to 1000 |
| COc1ccc(-c2nc3ccccn3c2-c2ccnc(Nc3cccc(CN4CCN(C)CC4)c3C)n2)cc1C(=O)Nc1c(F)cccc1F [Example 25, N-(2,6-difluorophenyl)-5-{3-[2-({2-methyl-3-[(4-methyl-1-piperazinyl)methyl]phenyl}amino)-4-pyrimidinyl}imidazo[1,2-a]pyridin-2-yl]-2-(methyloxy)benzamide] | – | 100 to 500 | 250 to 1000 |
| COc1cc(N2CCC(N3CCCCC3)CC2)c(C)cc1Nc1nccc(-c2c(-c3cccc(C(=O)Nc4c(F)cccc4F)c3)nc3ccccn23)n1 [Example 108, 3-[3-(2-{[4-(1,4′-bipiperidin-1′-yl)-5-methyl-2-(methyloxy)phenyl]amino]-4-pyrimidinyl)imidazo[1,2-a]pyridin-2-yl]-N-(2,6-difluorophenyl)benzamide] | < 100 | < 100 | – |
| COc1cc(N2CCC(N3CC[C@@H](F)C3)CC2)ccc1Nc1nccc(-c2c(-c3cccc(C(=O)Nc4c(F)cccc4F)c3)nc3ccccn23)n1 [Example 76, N-(2,6-difluorophenyl)-3-[3-(2-{[4-{4-[(3R)-3-fluoro-1-pyrrolidinyl]-1-piperidinyl}-2-(methyloxy)phenyl]amino}-4-pyrimidinyl)imidazo[1,2-a]pyridin-2-yl]benzamide] | – | < 100 | 250 to 1000 |
| COc1ccn2c(-c3ccnc(Nc4cccc(OCCN(C)C)c4)n3)c(-c3ccc(OC)c(C(=O)Nc4c(F)cccc4F)c3)nc2c1 [Example 3, N-(2,6-difluorophenyl)-5-[3-{2-[(3-{[2-(dimethylamino)ethyl]oxy}phenyl)amino]-4-pyrimidinyl}-7-(methyloxy)imidazo[1,2-a]pyridin-2-yl]-2-(methyloxy)benzamide] | – | 100 to 500 | 250 to 1000 |
| CCc1cc(Nc2nccc(-c3c(-c4ccc(OC)c(C(=O)Nc5c(F)cccc5F)c4)nc4ccccn34)n2)c(OC)cc1N1CCN(CCS(C)(=O)=O)CC1 [Example 187, N-(2,6-difluorophenyl)-5-(3-{2-[(5-ethyl-2-(methyloxy)-4-{4-[2-(methylsulfonyl)ethyl]-1-piperazinyl}phenyl)amino]-4-pyrimidinyl}imidazo[1,2-a]pyridin-2-yl)-2-(methyloxy)benzamide] | < 100 | < 100 | – |
